Consider twelve compounds from patent US4894385A, “Imidazole derivatives as inhibitors of TXA2 synthesis” (Sankyo Company Limited, priority 1985, dated 1990).

Assay [1] has as its target T1, TXA2 synthetase (Oryctolagus cuniculus, UniProt G1TAZ9).
T1 construct: The platelet microsome fraction was separated from rabbit and from human blood; from tissue; host or cells: rabbit blood platelets, microsome fraction
T1 sequence (G1TAZ9 1-530): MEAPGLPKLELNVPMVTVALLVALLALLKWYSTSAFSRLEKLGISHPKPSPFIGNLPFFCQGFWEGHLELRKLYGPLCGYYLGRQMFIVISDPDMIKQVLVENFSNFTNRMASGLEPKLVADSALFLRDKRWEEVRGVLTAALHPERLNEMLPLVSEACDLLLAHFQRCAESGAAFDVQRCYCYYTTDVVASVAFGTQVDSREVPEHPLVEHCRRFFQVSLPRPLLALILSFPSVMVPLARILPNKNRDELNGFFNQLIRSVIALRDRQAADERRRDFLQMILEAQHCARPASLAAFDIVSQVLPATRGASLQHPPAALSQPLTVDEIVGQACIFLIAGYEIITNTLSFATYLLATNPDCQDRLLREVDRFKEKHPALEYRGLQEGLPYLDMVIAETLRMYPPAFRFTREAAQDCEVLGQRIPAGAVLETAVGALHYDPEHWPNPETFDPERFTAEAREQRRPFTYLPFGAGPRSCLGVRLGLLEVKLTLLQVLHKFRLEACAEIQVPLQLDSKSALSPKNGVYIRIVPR
Briefly: Inhibition of Thromboxane A2 Synthetase (rabbit platelet microsomes). Format: biochemical. The conditions noted are these: 0.1 mM [14C] arachidonic acid, 1 minute, 22° C., compounds as hydrochloride except No. 40 (free base). How it is done:
The platelet microsome fraction was separated from rabbit and from human blood by the method of Needleman et al. [Needleman et al., Science, 193, 163 (1976)]. The microsomal TXA2 synthetase activity in the presence of various of the compounds of the invention at various concentrations was assayed by a modification of the method of […] et al. [[…] et al., Prostaglandins, 21, 543 (1981)] by incubating the microsome fractions with labelled 1-[^14 C] arachidonic acid at a concentration of 0.1 mM for 1 minute at 22° C., to a final volume of 0.2 ml. The reaction was terminated by the addition of […] of 0.2M citric acid, and then the mixture was extracted with 1.5 ml of ethyl acetate. […] The developing solvent for the chromatography was a 90:8:1:0.8 by volume mixture of chloroform, methanol, acetic acid and water. […] The results are shown in the following Table as the IC50, i.e. the concentration required to inhibit the activity of thromboxane synthetase by 50%. […] The compounds of the invention are identified in the following Tables by the numbers heretofore assigned to them. All compounds were employed in the form of the hydrochloride, except Compound No. 40, which was employed as the free base. The results using rabbit platelet microsomes are given in Table 4, whilst the results using human platelet microsomes are given in Table 5.

The target in assay [2] is T2, TXA2 synthetase (Homo sapiens, UniProt P24557).
T2 construct: The platelet microsome fraction was separated from rabbit and from human blood; from tissue; host or cells: human blood platelets, microsome fraction
T2 sequence (P24557 1-533): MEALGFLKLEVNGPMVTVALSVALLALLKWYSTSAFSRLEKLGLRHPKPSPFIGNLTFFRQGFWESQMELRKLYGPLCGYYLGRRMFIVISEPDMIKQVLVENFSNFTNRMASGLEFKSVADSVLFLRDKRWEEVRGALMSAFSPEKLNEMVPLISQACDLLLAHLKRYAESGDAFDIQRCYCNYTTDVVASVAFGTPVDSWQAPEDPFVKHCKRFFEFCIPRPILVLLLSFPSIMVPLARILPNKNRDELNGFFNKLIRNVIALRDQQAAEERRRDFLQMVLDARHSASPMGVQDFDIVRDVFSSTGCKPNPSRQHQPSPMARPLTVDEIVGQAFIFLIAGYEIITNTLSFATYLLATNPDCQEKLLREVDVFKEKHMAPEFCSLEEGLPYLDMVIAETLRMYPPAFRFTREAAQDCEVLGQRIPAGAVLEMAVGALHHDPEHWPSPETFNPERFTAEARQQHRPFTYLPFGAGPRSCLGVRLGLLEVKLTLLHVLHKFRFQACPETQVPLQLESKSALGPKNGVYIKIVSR
The assay can be described thus: Inhibition of Thromboxane A2 Synthetase (human platelet microsomes). Format: biochemical. The conditions noted are these: 0.1 mM [14C] arachidonic acid, 1 minute, 22° C., compounds as hydrochloride. On the procedure:
The platelet microsome fraction was separated from rabbit and from human blood by the method of Needleman et al. [Needleman et al., Science, 193, 163 (1976)]. The microsomal TXA2 synthetase activity in the presence of various of the compounds of the invention at various concentrations was assayed by a modification of the method of […] et al. [[…] et al., Prostaglandins, 21, 543 (1981)] by incubating the microsome fractions with labelled 1-[^14 C] arachidonic acid at a concentration of 0.1 mM for 1 minute at 22° C., to a final volume of 0.2 ml. The reaction was terminated by the addition of […] of 0.2M citric acid, and then the mixture was extracted with 1.5 ml of ethyl acetate. […] The developing solvent for the chromatography was a 90:8:1:0.8 by volume mixture of chloroform, methanol, acetic acid and water.

Another assay relates to synthesis of TXA2. The conditions noted are these: in words; Prostaglandins, 13, 611 (1977); cited from earlier work.
Assay [3] concerns pulmonary thromboembolisms caused by the intravenous injection of arachidonic acid. Briefly: Antithrombotic Activity in Rabbits (arachidonic acid i.v. sudden death). The class given is in vivo, male Japanese white rabbits. To be noted: Oryctolagus cuniculus; oral, 1 hour before 1.3 mg/kg i.v. arachidonic acid; sudden deaths; Probit's method. On the procedure:
This test was carried out by a modification of the method of Silver et al. [Science, 183, 1085 (1974)]. The test animals used were male Japanese white rabbits of approximately 3 kg bodyweight.
Each group of rabbits was administered orally the test compound at an appropriate dose and then, one hour after the oral administration, each was given 1.3 mg/kg or arachidonic acid by intravenous injection. The test animals were observed and sudden deaths during the test period were recorded. The ED50 was determined by Probit's method.
Unmedicated rabbits were employed as a control, without administering any test compound, but these were all dead within several minutes after the injection of arachidonic acid, as a result of pulmonary thromboembolisms.

Structures can show the parent of a compound that is named as a salt.

The term IC50 denotes the concentration at which inhibition is half-maximal. At TXA2 synthetase [1], `COc1cc(OC)c(C(Cn2ccnc2)Sc2ccc(C(=O)O)cc2)c(OC)c1` (stereo not drawn) [Compound 84, 4-[1-(2,4,6-Trimethoxyphenyl)-2-(imidazol-1-yl)ethylthio]benzoic acid hydrochloride] yielded an IC50 of 0.033 µM. This counts as double-digit nanomolar.

The compound `COc1ccc(C(Cn2ccnc2)Sc2ccc(C(=O)O)cc2)c(OC)c1` (stereo not drawn) [Compound 74, 4-[1-(2,4-Dimethoxyphenyl)-2-(imidazol-1-yl)ethylthio]benzoic acid hydrochloride] showed a half-maximal inhibitory concentration (IC50) at TXA2 synthetase [1] of 0.04 µM.

For `Cc1ccccc1C(Cn1ccnc1)Sc1ccc(C(=O)O)cc1` (stereo not drawn) [Compound 58, 4-[1-(2-Methylphenyl)-2-(imidazol-1-yl)ethylthio]benzoic acid hydrochloride], the IC50 against TXA2 synthetase [1] amounted to 0.067 µM; against TXA2 synthetase [2] it was 0.052 µM.

At TXA2 synthetase [1], `O=C(O)c1ccc(SC(Cn2ccnc2)c2ccccc2Cl)cc1` (stereo not drawn) [Compound 49, 4-[1-(2-Chlorophenyl)-2-(imidazol-1-yl)ethylthio]benzoic acid hydrochloride] registered an IC50 of 0.081 µM.

`COc1cccc(OC)c1C(Cn1ccnc1)Sc1ccc(C(=O)O)cc1` (stereo not drawn) [Compound 79, 4-[1-(2,6-Dimethoxyphenyl)-2-imidazol-1-yl)ethylthio]benzoic acid hydrochloride] gave an IC50 against TXA2 synthetase [1] of 0.057 µM.

`O=C(O)c1ccc(SC(Cn2ccnc2)c2ccccc2)cc1` (stereo not drawn) [Compound 40, 4-[1-Phenyl-2-(imidazol-1-yl)ethylthio]benzoic acid] gave an IC50 at TXA2 synthetase [1] of 0.071 µM.

As to `Cn1ccnc1` [1-methylimidazole], in the assay with synthesis of TXA2, the “inhibitory effect on the synthesis of TXA2” value is given as “some inhibitory effect”.

Consider `Cc1cc(C)c(C(Cn2ccnc2)Sc2ccc(C(=O)O)cc2)c(C)c1` (stereo not drawn) [Compound 62, 4-[1-(2,4,6-Trimethylphenyl)-2-(imidazol-1-yl)ethylthio]benzoic acid hydrochloride], for which 0.069 µM corresponded to half-maximal inhibition at TXA2 synthetase [1] (IC50).

`O=C(O)c1ccc(SC(Cn2ccnc2)c2ccc(Cl)cc2Cl)cc1` (stereo not drawn) [Compound 44, 4-[1-(2,4-Dichlorophenyl)-2-(imidazol-1-yl)ethylthio]-benzoic acid hydrochloride] returned a half-inhibitory concentration (IC50) on TXA2 synthetase [1] of 0.047 µM.

By ED50 is commonly meant the dose that gives a 50% effect, or the effect in half of the subjects. Lower therefore signals an effect at a small dose. `Cl.O=C(O)c1ccc(OCCn2ccnc2)cc1` [Dazoxiben, 4-[2-(1-imidazolyl)ethoxy]benzoic acid hydrochloride, reference compound] displayed a 50% effective dose (ED50) in assay [3] of 1.1 mg/kg.

Turning to `c1c[nH]cn1` [imidazole], the “inhibitory effect on the synthesis of TXA2” value in the assay with synthesis of TXA2 is listed as “some inhibitory effect”.

For `COc1ccccc1C(Cn1ccnc1)Sc1ccc(C(=O)O)cc1.Cl` (stereo not drawn) [Compound 70, 4-[1-(2-Methoxyphenyl)-2-(imidazol-1-yl)ethylthio]benzoic acid hydrochloride], the results for the IC50 on TXA2 synthetase [1] and on TXA2 synthetase [2] were 0.059 µM and 0.073 µM, respectively. In assay [3], this compound showed a 50% effective dose (ED50) of 0.13 mg/kg.
